Reference: patent US20260250318A1, “COMPOSITIONS AND METHODS FOR CROSSING THE BLOOD BRAIN BARRIER” (VOYAGER THERAPEUTICS, INC., priority 2022, published 2026)

Tested on: brains, heart, liver, muscle, and DRG of the NHPs
Experiment: Maturation of TTM-001 and TTM-002 capsids, NGS enrichment in NHP tissues
Assay type: in vivo
Text: This Example describes maturation of the AAV9 capsid variants, TTM-001 (SEQ ID NO: 981 (amino acid) and 983 (DNA), comprising SEQ ID NO: 941 (encoded by SEQ ID NO: 942)) and TTM-002 (SEQ ID NO: 982 (amino acid) and 984 (DNA), comprising SEQ ID NO: […] (encoded by SEQ ID NO: 944)) in NHPs to further enhance their transduction and biodistribution in the central nervous system as well as other tissues, and evolve the AAV capsid variants to provide further cross-species compatibility. Two approaches were used to mature the TTM-001 and TTM-002 capsid sequences in order to randomize and mutate within and around the peptide insert comprised within loop IV of the capsid variant. […] In the first maturation approach, sets of three contiguous amino acids were randomized across the mutagenesis region in the TTM-001 and TTM-002 sequences, which spanned from position 450 to position 466, numbered according to SEQ ID NO: 981 and 982. In the second maturation approach, mutagenic primers were used to introduce point mutations at a low frequency, scattered across the mutagenesis region in the TTM-001 and TTM-002 sequences ranging from position 449 to position 466, numbered according to SEQ ID NO: 981 and 982. AAV capsid variants arising from each maturation approach for TTM-001 and TTM-002 were pooled together, for subsequent testing and characterization in NHPs.
The library of pooled matured AAV capsid variants generated using the first maturation approach and the second maturation approach for the TTM-001 and TTM-002 AAV capsid variants were injected into two NHPs. […] Following RNA recovery and RT-PCR amplification, a systematic NGS enrichment analysis was performed to calculate the fold enrichment ratio relative to an AAV9 control, and the peptides comprised within the variants were identified.
Following the RNA recovery and NGS analysis from the second maturation approach, approximately 680,000 capsid variants were identified. The 680,000 matured capsid variants were then filtered based on samples with a raw virus count greater than 10 and a coefficient of variance (CV) of less than 1, which was calculated for each peptide across the brain samples taken from the two NHPs. […] Using this filtering criteria, this led to approximately 64,000 matured capsid variants.

[1] = NHP DRG, NGS, relative to AAV9 control
[2] = NHP brain, NGS, relative to AAV9 control
[3] = NHP heart, NGS, relative to AAV9 control
[4] = NHP liver DNA, NGS, relative to AAV9 control
[5] = NHP liver RNA, NGS, TTM-001 and TTM-002 matured AAV capsid variants, relative to AAV9 control
[6] = NHP muscle, NGS, relative to AAV9 control

Row | Sequence | Fold Enrichment relative to AAV9, DRG (NHP) [1] | Fold Enrichment relative to AAV9, Brain (NHP) [2] | Fold Enrichment relative to AAV9, Heart (NHP) [3] | Fold Enrichment relative to AAV9, Liver DNA (NHP) [4] | Fold Enrichment relative to AAV9, Liver RNA (NHP) [5] | Fold Enrichment relative to AAV9, Muscle (NHP) [6] | Fold Enrichment relative to AAV9, DRG (NHP) (NGS fold-enrichment, DRG, NHP, relative to AAV9) | Fold Enrichment relative to AAV9, Brain (NHP) (NGS fold-enrichment, brain, NHP, relative to AAV9) | Fold Enrichment relative to AAV9, Heart (NHP) (NGS fold-enrichment, heart, NHP, relative to AAV9) | Fold Enrichment relative to AAV9, Liver DNA (NHP) (NGS fold-enrichment, liver DNA, NHP, relative to AAV9) | Fold Enrichment relative to AAV9, Liver RNA (NHP) (NGS fold-enrichment, liver RNA, NHP, relative to AAV9) | Fold Enrichment relative to AAV9, Muscle (NHP) (NGS fold-enrichment, muscle, NHP, relative to AAV9)
1 | KTINGSGSPHSYTRNQQT | 0.000 fold | 0.000 fold | 0.000 fold | 1.986 fold | 14.535 fold | 0.000 fold |  |  |  |  |  | 
2 | KTINGSGSPHSYYSNQQT |  |  |  |  |  |  | 0.000 fold | 0.000 fold | 0.000 fold | 2.856 fold | 10.680 fold | 0.000 fold
3 | KTINGSGSPHVNCQNQQT | 0.000 fold | 0.000 fold | 0.000 fold | 6.122 fold | 30.010 fold | 0.000 fold |  |  |  |  |  | 
4 | KTINGSGSPHVPWQNQQT | 0.000 fold | 0.000 fold | 0.000 fold | 3.435 fold | 25.294 fold | 0.000 fold |  |  |  |  |  | 
5 | KTINGSGSPHVYHQNQQT | 0.000 fold | 0.000 fold | 0.000 fold | 1.733 fold | 14.770 fold | 0.000 fold |  |  |  |  |  | 
6 | KTINGSGSPHVYYQNQQT | 0.000 fold | 0.944 fold | 0.246 fold | 2.173 fold | 53.294 fold | 5.268 fold |  |  |  |  |  | 
7 | KTINGSGSPHWSYQNQQT | 0.000 fold | 0.000 fold | 0.000 fold | 3.751 fold | 28.607 fold | 0.000 fold |  |  |  |  |  | 
8 | KTINGSGSPHWVAQNQQT | 0.000 fold | 0.000 fold | 0.000 fold | 3.634 fold | 11.703 fold | 0.000 fold |  |  |  |  |  | 
9 | KTINGSGSPHWVPQNQQT | 0.000 fold | 0.000 fold | 0.000 fold | 3.219 fold | 22.907 fold | 0.000 fold |  |  |  |  |  | 
10 | KTINGSGSPHYGIQNQQT | 0.000 fold | 0.000 fold | 0.000 fold | 1.076 fold | 30.908 fold | 0.000 fold |  |  |  |  |  | 
11 | KTINGSGSPHYRYQNQQT | 0.000 fold | 0.000 fold | 0.000 fold | 1.027 fold | 14.107 fold | 0.000 fold |  |  |  |  |  | 
12 | KTINGSISPHCPAQNQQT | 0.000 fold | 0.000 fold | 0.000 fold | 0.556 fold | 24.932 fold | 0.000 fold |  |  |  |  |  | 
13 | KTINGSLSPHFWAQNQQT | 0.000 fold | 0.000 fold | 0.000 fold | 2.041 fold | 43.190 fold | 0.000 fold |  |  |  |  |  | 
14 | KTINGSRSPHAWAQNQQT (peptide inserted in AAV capsid) | 0.000 fold | 0.000 fold | 0.000 fold | 6.838 fold | 31.146 fold | 0.000 fold |  |  |  |  |  | 
15 | KTINGSSSPHRCAQNQQT (peptide inserted in AAV capsid) | 0.000 fold | 0.000 fold | 0.000 fold | 1.829 fold | 28.887 fold | 0.000 fold |  |  |  |  |  | 
16 | KTINGSSSPHWMAQNQQT (peptide inserted in AAV capsid) | 0.000 fold | 0.000 fold | 0.000 fold | 2.390 fold | 16.635 fold | 0.000 fold |  |  |  |  |  | 
17 | KTINGSVSPHCTAQNQQT (peptide inserted in AAV capsid) | 0.000 fold | 0.000 fold | 0.000 fold | 2.955 fold | 13.502 fold | 0.000 fold |  |  |  |  |  | 
18 | KTINGSYSPHCLAQNQQT (peptide inserted in AAV capsid) | 0.000 fold | 0.000 fold | 0.000 fold | 0.309 fold | 62.942 fold | 0.000 fold |  |  |  |  |  | 
19 | KTINGTRSPHKKAQNQQT | 0.225 fold | 0.700 fold | 0.052 fold | 1.152 fold | 14.173 fold | 4.082 fold |  |  |  |  |  | 
20 | KTINHRISPHSKAQNQQT | 0.000 fold | 0.000 fold | 0.000 fold | 1.876 fold | 42.998 fold | 0.000 fold |  |  |  |  |  | 
21 | KTINKCLSPHSKAQNQQT | 0.000 fold | 0.000 fold | 0.000 fold | 5.097 fold | 30.667 fold | 0.000 fold |  |  |  |  |  | 
